Data taken from PubChem BioAssay AID1963840 (Molecular Pharmacology Branch, DTP, NCI, 2024).
Several values for one entry are separate records, joined by “and”; a condition that tells them apart may be missing. Equal values may be shown once.

Test system: 695427-040-R-J1-PDC complex spheroid viability
Assay: Anticancer human tumor 695427-040-R-J1-PDC patient-derived colon adenocarcinoma cell line growth inhibition [POLQ]
Conditions: for viability, T/C: stronger effect = lower value
Protocol: Multicellular complex tumor spheroid response to Polymerase (POL) inhibitors (novobiocin, ART-558, RP6685) in combination with a variety of drugs and investigational agents in selected tumor cell lines
The POL inhibitors (novobiocin, ART-558, and RP6685) were evaluated both individually and in combination with standard of care and investigational anticancer small molecules within a complex spheroid model of solid tumors. . Complex spheroids include a stromal component modeled by human endothelial cells (HUVEC) and fibroblasts modeled by human mesenchymal stem cells (MSCs). The concentration ranges selected for each drug and investigational agent were based upon clinically achievable concentrations if the clinical Cmax of the agent was known.
Compounds. The drugs and investigational agents: novobiocin (NSC847541), ART-558 (NSC835418), RP-6685 (NSC848927), peposertib (NSC802822), ceralasertib (NSC780249), elimusertib (NSC800525), camonsertib (NSC841442), AZD-1390 (NSC803789), olaparib (NSC753686), talazoparib (NSC767125), rucaparib (NSC756644), sotorasib (NSC818433), MRTX-1133 (NSC836407), SN-38 (NSC673596), topotecan (NSC609699), epotoside (NSC141540), doxorubicin (NSC123127), gemcitabine (NSC613327), 5-fluorouracil (NSC19893), paclitaxel (NSC125973), vemurafenib (NSC761431), MSA-2 (NSC828583), SN-011 (NSC837082), adavosertib (NSC754352), prexasertib (NSC758257), carboplatin (NSC241240) and oxaliplatin (NSC266046), were obtained from the National Cancer Institute (NCI) Developmental Therapeutics Program Chemical Repository (21). The FDA-approved anticancer drug set is available from the Developmental Therapeutics Program at https://dtp.cancer.gov/organization/dscb/obtaining/. […] The stock solutions were prepared in dimethyl sulfoxide (DMSO, Sigma-Aldrich, St. Louis, MO, cat. D2650), except for the platinum compounds which were prepared in saline (Quality Biological, Gaithersburg, MD, cat. 114-055-101), at 800-fold the tested concentration and stored at -70 degrees C prior to their use. All drugs and investigational agents were tested over a range starting from a high concentration at or near the clinical Cmax and decreasing in half-log increments. If the clinical Cmax for an agent had not been determined, the highest concentration tested was 10 microM, except for SN-38, which was tested at a high concentration of 1 microM.
Cell Culture. All cells were maintained in an incubator at 37 degrees C and 5% CO2 with 95% humidity. The PDC lines were cultured according to standard operating procedures established by the NCI PDMR (https://pdmr.cancer.gov). Table 3 of the manuscript, lists the cell lines along with the number of the three cell types plated to form the mct-spheroids and media for tumor cell growth. After thawing, all PDC lines, except 997537-175-T-J1-PDC and 415267-285-R-J2-PDC, were cultured in Matrigel-coated flasks prepared with a working solution of 1X Ham's F-12 nutrient mix, without supplementation (Thermo Fisher Scientific, cat. 11765054), 100 U/mL penicillin-streptomycin (Thermo Fisher Scientific, cat. 15140122), and 2.5% Matrigel (Corning Inc., Corning, NY, cat. 354248) for the first three passages. The two PDC lines 997537-175-T-J1-PDC and 415267-285-R-J2-PDC were cultured on uncoated flasks. The 857933-349-R-J2-PDC line was cultured in 6C/Colon 1B media containing advanced DMEM/F-12 (Thermo Fisher Scientific, cat. 12634028), 10 mM HEPES (Thermo Fisher Scientific, cat. 15630080), 1X GlutaMAX supplement (Thermo Fisher Scientific, cat. 35050061), 0.1 mg/mL primocin (InvivoGen, San Diego, CA, cat. ant-pm-2), 10% defined fetal bovine serum, heat inactivated (HyClone Laboratories Inc., Logan, UT, cat. SH30070.03HI), 50% L-WRN conditioned media (ATCC, cat. CRL-3276), 1.25 mM N-Acetyl-L-cysteine (Sigma-Aldrich, cat. A9165), 10 mM nicotinamide (Sigma-Aldrich, cat. N0636), 1X B-27 supplement (Thermo Fisher Scientific, cat. 17504044), 1X N-2 supplement (Thermo Fisher Scientific, cat. […]

[1] = compound alone, run of 10/31/2023
[2] = compound alone, run of 11/06/2023
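Note: spheroids exposed to compounds for seven days.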
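Throughout, for viability, T/C: 100% = DMSO vehicle control viability.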

| SMILES | viability, T/C (compound 0.0316 µM) | viability, T/C (compound 0.1 µM) | viability, T/C (compound 0.316 µM) | viability, T/C (compound 1 µM) | viability, T/C (compound 3.16 µM) | viability, T/C (compound 10 µM) | IC50 [1] [µM] | IC50 (curve of compound) | viability, T/C (compound 0.00316 µM) | viability, T/C (compound 0.01 µM) | IC50 [2] [µM] | viability, T/C (compound 0.000316 µM) | viability, T/C (compound 0.001 µM) |
| --- | --- | --- | --- | --- | --- | --- | --- | --- | --- | --- | --- | --- | --- |
| COC1C(OC(N)=O)C(O)C(Oc2ccc3c(O)c(NC(=O)c4ccc(O)c(CC=C(C)C)c4)c(=O)oc3c2C)OC1(C)C (configuration not stated) | 104% [middle of 13 runs] | 104% [middle of 13 runs] | 106% [middle of 13 runs] | 106% [middle of 13 runs] | 110% [middle of 13 runs] | 110% [middle of 13 runs] | > 10 | – | – | – | – | – | – |
| COc1cc(C2c3cc4c(cc3C(OC3OC5COC(C)OC5C(O)C3O)C3COC(=O)C23)OCO4)cc(OC)c1O (configuration not stated) | 95.6% and 105% and 95.5% | 91.4% and 94.1% and 99% | 96% and 96.6% and 109% | 97.5% (2×) and 101% | 91.6% and 99.4% and 94.1% | 90.2% and 90.4% and 80.9% | – | > 10 µM | – | – | – | – | – |
| COc1cc2cc(C(=O)CCC(=O)O)sc2cc1OC | 109% and 100% and 101% | 97.3% and 102% and 99.5% | 97.4% and 105% and 103% | 104% and 105% and 107% | 103% and 102% (2×) | 99.8% and 93.7% and 102% | – | > 10 µM | – | – | – | – | – |
| COc1ccc([C@@H](O)c2cc(-c3ncnc4cc(N5CCOCC5)ccc34)c(F)cc2Cl)nn1 | 108% and 103% (2×) | 91.8% and 86.1% and 99.5% | 92.8% and 93.3% and 97.7% | 91.9% and 94.2% and 96.2% | 80.1% and 82.6% and 85% | 50% and 59% and 56.5% | – | > 10 µM | – | – | – | – | – |
| COc1cccc(OCCCN)c1-c1cc(Nc2cnc(C#N)cn2)n[nH]1 | 80.9% and 87.1% and 92.6% | 76% and 75.7% and 85.2% | 53.1% and 74.3% and 72.6% | 37.3% and 50.5% and 55.4% | – | – | – | 0.448 µM and > 1 µM | 94.2% and 94.8% and 102% | 84.4% and 93.3% and 91.1% | – | – | – |
| COc1cccc2c1C(=O)c1c(O)c3c(c(O)c1C2=O)CC(O)(C(=O)CO)CC3OC1CC(N)C(O)C(C)O1 (configuration not stated) | 87.5% and 98.1% and 92.7% | 96.2% and 87.2% and 90.7% | 95% and 96.7% and 101% | 71.2% and 89.7% and 82.5% | 66% and 74% and 68.7% | 57.1% and 69.8% and 53.8% | – | > 10 µM | – | – | – | – | – |
| Cc1cccc(N(C)C(=O)C2C(O)CCN2c2nc(C)cc(C(F)(F)F)c2C#N)c1 (configuration not stated) | 102% [middle of 13 runs] | 101% [middle of 13 runs] | 100% [middle of 13 runs] | 100% [middle of 13 runs] | 99% [middle of 13 runs] | 100% [middle of 13 runs] | > 10 | – | – | – | > 10 | – | – |
| Cn1ncnc1[C@H]1c2n[nH]c(=O)c3cc(F)cc(c23)N[C@@H]1c1ccc(F)cc1 | 106% and 113% and 101% | 89.5% and 97.1% and 94.2% | – | – | – | – | – | > 0.1 µM | 109% and 102% and 99.2% | 101% and 109% and 104% | – | 105% and 96.4% and 102% | 97.7% and 91% and 93.6% |
| Nc1ccc(C#CCN(C(=O)Cc2ncc(C(F)(F)F)cc2C(F)(F)F)c2ccc(F)cc2)nn1 | 91.6% [middle of 13 runs] | 102% [middle of 13 runs] | 101% [middle of 13 runs] | 101% [middle of 13 runs] | 102% [middle of 13 runs] | 105% [middle of 12 runs] | – | – | – | – | > 10 | – | – |
| Nc1ccn(C2OC(CO)C(O)C2(F)F)c(=O)n1 (configuration not stated) | 90% and 87.3% (2×) | 76.8% and 89.3% and 78.8% | 70.9% and 83.7% and 72% | 71.8% and 78.5% and 69% | 64.6% and 81.7% and 60.8% | 57.5% and 64.6% and 53% | – | > 10 µM | – | – | – | – | – |
| O=C(Nc1ccc(O)c(NS(=O)(=O)c2ccc(F)cc2)c1)c1ccc(-c2ccccc2)cc1 | 112% and 106% (2×) | 94.9% and 102% and 99.2% | 99.2% and 96.5% and 105% | 106% and 111% and 105% | 102% and 101% and 110% | 94% and 98.5% and 90.2% | – | > 10 µM | – | – | – | – | – |
| O=C(c1cc(Cc2n[nH]c(=O)c3ccccc23)ccc1F)N1CCN(C(=O)C2CC2)CC1 | 102% and 101% (2×) | 87.2% and 107% and 101% | 102% and 110% and 100% | 99% and 107% and 102% | 101% and 102% and 114% | 97.8% and 97.4% and 107% | – | > 10 µM | – | – | – | – | – |
| O=c1[nH]cc(F)c(=O)[nH]1 | 105% (2×) and 104% | 95.7% and 106% and 103% | 93.2% and 102% and 99.6% | 102% and 100% (2×) | 102% and 115% and 103% | 96% and 111% and 99.7% | – | > 10 µM | – | – | – | – | – |
